Consider one compound from patent publication US20190018003A1, “TUMOR DISCRIMINATION METHOD, DIAGNOSTIC AGENT FOR TUMOR, AND SENSITIZER FOR TUMOR DIAGNOSIS” (TOTO LTD., priority 2017, published 2019).

The assay relates to T24 urinary bladder cancer cells. Description: Fluorescence enhancement in T24 cells by separate administration of hypericin and particles. Format: cell-based, human. Particulars: Example 9, fluorescent dye = hypericin 1 μmol/l 1 h, then particles 0.001 w/v % 2 h, immediately after observation light irradiation. The protocol: A solution (100 mmol/l) of hypericin (FUJIFILM Wako Pure Chemical Corporation) in dimethyl sulfoxide (FUJIFILM Wako Pure Chemical Corporation) as a solvent was mixed into an MEM medium (MEM, GlutaMAX™ supplement (Thermo Fisher Scientific)) to form a 1 μmol/l hypericin solution. Further, an aqueous solution of light scattering particles (2) (ii) was mixed into an MEM medium to form a 0.001 w/v % light scattering particle solution. Evaluation was performed as follows. The medium of the T24 cells on a 6-well plate, obtained in Example 3, was removed by an aspirator, and thereto was added 2 ml of MEM medium (Thermo Fisher Scientific). Once again, the MEM medium was removed by an aspirator, thereto was added 2 ml of hypericin solution, and the system was cultured under conditions of 3TC and 5 v/v % CO2 for 1 hour. Then, the hypericin solution of the cells on the 6-well plate was removed by an aspirator, to the residue was added 2 ml of the light scattering particle solution, and the system was cultured under conditions of 3TC and 5 v/v % CO2 for 2 hours. […] Detection of fluorescence was performed in the same manner as in Example 5 by using an inverted fluorescence microscope and, from the images acquired, fluorescence intensities were obtained and relative fluorescence intensities were calculated.

As for `Cc1cc(O)c2c(=O)c3c(O)cc(O)c4c5c(O)cc(O)c6c(=O)c7c(O)cc(C)c8c1c2c(c34)c(c78)c65` [hypericin], the Relative fluorescence intensity worked out at 1.0.
